{
  "source": "paper PMC4972573",
  "about": "(Nature structural & molecular biology, 2013)",
  "biological_target": "GluK2 Y521C L783C (Rattus norvegicus, UniProt P42260, Y521C/L783C)",
  "sequence (P42260 32-908 Y521C/L783C)": "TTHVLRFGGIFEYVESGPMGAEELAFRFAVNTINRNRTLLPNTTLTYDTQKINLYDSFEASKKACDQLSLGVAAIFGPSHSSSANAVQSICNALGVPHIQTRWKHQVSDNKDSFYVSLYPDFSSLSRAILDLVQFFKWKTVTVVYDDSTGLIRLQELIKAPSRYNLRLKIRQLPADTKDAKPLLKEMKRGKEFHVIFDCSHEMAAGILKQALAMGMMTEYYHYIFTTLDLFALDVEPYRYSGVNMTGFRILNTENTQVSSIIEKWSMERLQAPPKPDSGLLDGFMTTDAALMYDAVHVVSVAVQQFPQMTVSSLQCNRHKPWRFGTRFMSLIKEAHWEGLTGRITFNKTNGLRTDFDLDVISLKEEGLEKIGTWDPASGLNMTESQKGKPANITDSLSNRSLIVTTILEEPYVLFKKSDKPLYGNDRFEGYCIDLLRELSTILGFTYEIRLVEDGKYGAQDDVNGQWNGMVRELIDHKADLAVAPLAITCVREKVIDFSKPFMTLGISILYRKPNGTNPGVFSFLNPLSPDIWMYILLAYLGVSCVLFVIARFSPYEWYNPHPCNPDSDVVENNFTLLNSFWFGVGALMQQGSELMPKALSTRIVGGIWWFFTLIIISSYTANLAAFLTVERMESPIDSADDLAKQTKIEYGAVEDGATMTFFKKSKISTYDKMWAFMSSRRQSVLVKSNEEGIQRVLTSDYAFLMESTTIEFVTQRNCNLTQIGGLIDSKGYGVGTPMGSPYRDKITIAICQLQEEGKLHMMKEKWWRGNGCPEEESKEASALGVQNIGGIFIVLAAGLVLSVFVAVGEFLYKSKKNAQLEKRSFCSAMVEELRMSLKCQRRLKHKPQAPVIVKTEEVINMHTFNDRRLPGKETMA",
  "assay": "outside-out patch single-channel and macroscopic currents",
  "assay_type": "cell-based",
  "data": [
    {"smiles": "N[C@@H](CCC(=O)O)C(=O)O", "note": "[L-Glu]", "values": [
      {"measurement": "outside-out patch single-channel and macroscopic currents", "result": "Unitary current events elicited by L-Glu acting on Y521C L783C channels"}
    ]}
  ]
}
